Values after ≈ are worked out from the molar mass of the structure shown. Where two headings read alike, the source gives them in different places.
How the values were obtained:
Format in all cases: cell-based
[1] = tested on: Candida tropicalis NRRL-Y-112; assay: In vitro antifungal MIC, Candida tropicalis NRRL-Y-112
Method: (§1) The in vitro antifungal activity of the compounds of the present invention against a variety of fungiwas determined as follow: Test medium was prepared by dissolving first 5 g of dextrose and then 6.7 g of Bacto Yeast Nitrogen Base® (commercially available from Difco Laboratories) in 100 mL of distilled water. The solution was filter-sterilized and diluted 1:10 with 0.01M pH 8.0 phosphate buffer solution, and the final pH of the medium adjusted to about pH 7.0 when necessary with either 0.1N hydrochloric acid solution of 0.1N sodium hydroxide solution. […] These concentrated stock solutions were diluted to a concentration of 200 μg/mL (twice the highest concentration desired for testing) with the test medium. Amphotericin B, similarly prepared, was used as a reference antifungal agent.
(§2) The test organisms were then inoculated into test tubes containing approximately 3 to 10 mL of test medium and the test tubes incubated overnight at 37° C. A sample of each overnight culture was placed in a test tube and diluted using the test medium until a reading of 95% transmittance was obtained in a conventional UV/visible spectrophotometer set to 560 nm. The adjusted cultures were then diluted 1:50 with test medium. These diluted cultures served as the inocula for the assays which follow and were used within 15 minutes of preparation.
(§3) Next, 2-fold serial dilutions of each test compound in test medium were prepared in a 96-well microtiter plate using calibrated microdiluters attached to an automatic (hand-held) diluter (available from Dynatech Laboratories).
(§4) Using sterile calibrated droppers or a multi-point dispenser, the diluted inoculum suspension was added to each of the wells in the plate. When inoculation was complete, the microtiter tray was covered with a plastic plate sealer to minimize evaporation. After the plate had been sealed, a hole was made above each well with a sterile 26-gauge syringe needle in order to allow gas exchange. If plate sealers were not available, the microtiter trays were stacked in groups of five or less with an empty tray on top. The microtiter trays were then incubated in a humidified chamber at 35°-37° C. for 48 hours or until growth was visible in the growth control wells.
(§5) The minimum inhibitory concentration (MIC) was defined as the lowest concentration of test compound yielding no growth, a slight haze or sparsely isolated colonies on the inoculum spot as compared to the growth control containing no test compound.

[2] = tested on: Candida albicans ATCC 38247; assay: In vitro antifungal MIC, Candida albicans ATCC 38247
Method: as §1, §2, §3, §4, §5

[3] = tested on: Torulopsis glabrata ATCC 15545; assay: In vitro antifungal MIC, Torulopsis glabrata ATCC 15545
Method: as §1, §2, §3, §4, §5

[4] = tested on: Aspergillus niger ATCC 16404; assay: In vitro antifungal MIC, Aspergillus niger ATCC 16404
Method: as §1, §2, §3, §4, §5

[5] = tested on: Candida albicans ATCC 10231; assay: In vitro antifungal MIC, Candida albicans ATCC 10231
Method: as §1, §2, §3, §4, §5

[6] = tested on: Candida albicans ATCC 62376; assay: In vitro antifungal MIC, Candida albicans ATCC 62376
Method: as §1, §2, §3, §4, §5

[7] = tested on: Candida kefyr ATCC 28838; assay: In vitro antifungal MIC, Candida kefyr ATCC 28838
Method: as §1, §2, §3, §4, §5

[8] = tested on: Candida albicans CCH 442; assay: In vitro antifungal MIC, Candida albicans CCH 442
Method: as §1, §2, §3, §4, §5

[9] = tested on: Candida albicans 579A; assay: In vitro antifungal MIC, Candida albicans 579A
Method: as §1, §2, §3, §4, §5

[10] = tested on: Cryptococcus albidus ATCC 34140; assay: In vitro antifungal MIC, Cryptococcus albidus ATCC 34140
Method: as §1, §2, §3, §4, §5

[11] = NRRLY112, Candida tropicalis NRRL-Y-112, 35°-37° C., 48 hours, read-out: MIC
[12] = ATCC38247, Candida albicans ATCC 38247, 35°-37° C., 48 hours, read-out: MIC
[13] = Nakaseomyces glabratus, ATCC15545, Torulopsis glabrata ATCC 15545, 35°-37° C., 48 hours, read-out: MIC
[14] = ATCC16404, Aspergillus niger ATCC 16404, 35°-37° C., 48 hours, read-out: MIC
[15] = ATCC10231, Candida albicans ATCC 10231, 35°-37° C., 48 hours, read-out: MIC
[16] = ATCC62376, Candida albicans ATCC 62376, 35°-37° C., 48 hours, read-out: MIC
[17] = Kluyveromyces marxianus, ATCC28838, Candida kefyr ATCC 28838, 35°-37° C., 48 hours, read-out: MIC
[18] = CCH442, Candida albicans CCH 442, 35°-37° C., 48 hours, read-out: MIC
[19] = Candida albicans 579A, 35°-37° C., 48 hours, read-out: MIC
[20] = Naganishia albida, ATCC34140, Cryptococcus albidus ATCC 34140, 35°-37° C., 48 hours, read-out: MIC

| Structure (SMILES) | MIC [1, 11] | MIC [2, 12] | MIC [3, 13] | MIC [4, 14] | MIC [5, 15] | MIC [6, 16] | MIC [7, 17] | MIC [8, 18] | MIC [9, 19] | MIC [10, 20] | further results |
| --- | --- | --- | --- | --- | --- | --- | --- | --- | --- | --- | --- |
| CC(C)(C)N1Sc2ccccc2[S+]1[O-] (centres unmarked) [Example 14, 2-t-butyl-1,3,2-benzodithiazole-1-oxide] | 3.12 µg/mL (≈ 13.7 µM) | 6.25 µg/mL (≈ 27.5 µM) | 1.56 µg/mL (≈ 6.86 µM) | 0.78 µg/mL (≈ 3.43 µM) | 1.56 µg/mL (≈ 6.86 µM) | 0.78 µg/mL (≈ 3.43 µM) | 0.2 µg/mL (≈ 0.88 µM) | 1.56 µg/mL (≈ 6.86 µM) | 1.56 µg/mL (≈ 6.86 µM) | 3.12 µg/mL (≈ 13.7 µM) | – |
| CC[Si](CC)(CC)OCCN1Sc2ccccc2[S+]1[O-] (centres unmarked) [Example 20, 2-(2-(triethylsilyloxy)ethyl)-1,3,2-benzodithiazole-1-oxide] | – | – | – | – | – | – | – | – | – | – | MIC ([1]; Candida tropicalis, NRRLY112, 48 h): 25 µg/mL (≈ 75.9 µM); MIC ([2]; Candida albicans, ATCC38247, 48 h): 3.12 µg/mL (≈ 9.47 µM); MIC ([3]; Nakaseomyces glabratus, ATCC15545, 48 h): 25 µg/mL (≈ 75.9 µM); MIC ([4]; Aspergillus niger, ATCC16404, 48 h): 12.5 µg/mL (≈ 37.9 µM); MIC ([5]; Candida albicans, ATCC10231, 48 h): 25 µg/mL (≈ 75.9 µM); MIC ([6]; Candida albicans, ATCC62376, 48 h): 25 µg/mL (≈ 75.9 µM); MIC ([7]; Kluyveromyces marxianus, ATCC28838, 48 h): 1.56 µg/mL (≈ 4.73 µM); MIC ([8]; Candida albicans, CCH442, 48 h): 50 µg/mL (≈ 152 µM); MIC ([9]; Candida albicans, 579A, 48 h): 25 µg/mL (≈ 75.9 µM); MIC ([10]; Naganishia albida, ATCC34140, 48 h): 12.5 µg/mL (≈ 37.9 µM) |
| [O-][S+]1c2ccccc2SN1C1CC1 (centres unmarked) [Example 27, 2-cyclopropyl-1,3,2-benzodithiazole-1-oxide] | 1.56 µg/mL (≈ 7.38 µM) | 3.12 µg/mL (≈ 14.8 µM) | 0.78 µg/mL (≈ 3.69 µM) | 0.39 µg/mL (≈ 1.85 µM) | 1.56 µg/mL (≈ 7.38 µM) | 0.78 µg/mL (≈ 3.69 µM) | 0.39 µg/mL (≈ 1.85 µM) | 1.56 µg/mL (≈ 7.38 µM) | 0.78 µg/mL (≈ 3.69 µM) | 3.12 µg/mL (≈ 14.8 µM) | – |
| CCCCCN1Sc2ccccc2[S+]1[O-] (centres unmarked) [Example 4, 2-n-pentyl-1,3,2-benzodithiazole-1-oxide] | 50 µg/mL (≈ 207 µM) | 3.12 µg/mL (≈ 12.9 µM) | 0.78 µg/mL (≈ 3.23 µM) | 0.39 µg/mL (≈ 1.62 µM) | 0.78 µg/mL (≈ 3.23 µM) | 0.78 µg/mL (≈ 3.23 µM) | 0.78 µg/mL (≈ 3.23 µM) | 0.78 µg/mL (≈ 3.23 µM) | 0.78 µg/mL (≈ 3.23 µM) | 6.25 µg/mL (≈ 25.9 µM) | – |
| O=C(O)COCCN1Sc2ccccc2[S+]1[O-] (centres unmarked) [Example 22, 2-(2-(1,3,2-benzodithiazole-2-yl-1-oxide)ethyloxy) acetic acid] | 100 µg/mL (≈ 366 µM) | 50 µg/mL (≈ 183 µM) | 100 µg/mL (≈ 366 µM) | 25 µg/mL (≈ 91.5 µM) | 100 µg/mL (≈ 366 µM) | 100 µg/mL (≈ 366 µM) | 3.12 µg/mL (≈ 11.4 µM) | 100 µg/mL (≈ 366 µM) | 100 µg/mL (≈ 366 µM) | 100 µg/mL (≈ 366 µM) | – |
| [O-][S+]1c2ccccc2SN1C1CCCCCCC1 (centres unmarked) [Example 28, 2-cyclooctyl-1,3,2-benzodithiazole-1-oxide] | 3.12 µg/mL (≈ 11.1 µM) | 6.25 µg/mL (≈ 22.2 µM) | 3.12 µg/mL (≈ 11.1 µM) | 0.78 µg/mL (≈ 2.77 µM) | 3.12 µg/mL (≈ 11.1 µM) | 3.12 µg/mL (≈ 11.1 µM) | 0.39 µg/mL (≈ 1.39 µM) | 3.12 µg/mL (≈ 11.1 µM) | 3.12 µg/mL (≈ 11.1 µM) | 12.5 µg/mL (≈ 44.4 µM) | – |
| [O-][S+]1c2ccccc2SN1Cc1ccc(Cl)cc1Cl (centres unmarked) [Example 36, 2-(2,4-dichlorophenyl)methyl-1,3,2-benzodithiazole-1-oxide] | 3.12 µg/mL (≈ 9.45 µM) | 12.5 µg/mL (≈ 37.8 µM) | 3.12 µg/mL (≈ 9.45 µM) | 3.12 µg/mL (≈ 9.45 µM) | 3.12 µg/mL (≈ 9.45 µM) | 3.12 µg/mL (≈ 9.45 µM) | 0.78 µg/mL (≈ 2.36 µM) | 6.25 µg/mL (≈ 18.9 µM) | 1.56 µg/mL (≈ 4.72 µM) | 25 µg/mL (≈ 75.7 µM) | – |
| CCOC(=O)CN1Sc2ccccc2[S+]1[O-] (centres unmarked) [Example 21, ethyl 2-(1,3,2-benzodithiazole-2-yl-1-oxide)-acetate] | – | – | – | – | – | – | – | – | – | – | MIC ([1]; Candida tropicalis NRRL-Y-112, 35°-37° C., 48 hours): 6.25 µg/mL (≈ 24.3 µM); MIC ([2]; Candida albicans ATCC 38247, 35°-37° C., 48 hours): 6.25 µg/mL (≈ 24.3 µM); MIC ([3]; Torulopsis glabrata ATCC 15545, 35°-37° C., 48 hours): 3.12 µg/mL (≈ 12.1 µM); MIC ([4]; Aspergillus niger ATCC 16404, 35°-37° C., 48 hours): 1.56 µg/mL (≈ 6.06 µM); MIC ([5]; Candida albicans ATCC 10231, 35°-37° C., 48 hours): 6.25 µg/mL (≈ 24.3 µM); MIC ([6]; Candida albicans ATCC 62376, 35°-37° C., 48 hours): 6.25 µg/mL (≈ 24.3 µM); MIC ([7]; Candida kefyr ATCC 28838, 35°-37° C., 48 hours): 0.78 µg/mL (≈ 3.03 µM); MIC ([8]; Candida albicans CCH 442, 35°-37° C., 48 hours): 6.25 µg/mL (≈ 24.3 µM); MIC ([9]; Candida albicans 579A, 35°-37° C., 48 hours): 6.25 µg/mL (≈ 24.3 µM); MIC ([10]; Cryptococcus albidus ATCC 34140, 35°-37° C., 48 hours): 12.5 µg/mL (≈ 48.6 µM) |

From patent publication US5140018A, “1,3,2-benzodithiazole-1-oxide compounds” (Abbott Laboratories, priority 1991, dated 1992)
